The text below walks through data of PMC12406258, “Uncovering the Unusual Inhibition Mechanism of a Trypanosome Alternative Oxidase Inhibitor Displaying Broad-Spectrum Activity against African Animal Trypanosomes” (Journal of Medicinal Chemistry, 2025).

The test system of data set [1] is T. congolense WT. Nature of the data set: Drug sensitivity assay, T. congolense WT bloodstream forms. As to conditions: Trypanosoma congolense. The class given is cell-based. As to the method:
The susceptibilities of trypanosomes to compound 1 were determined as previously described using the resazurin (Alamar Blue) assay. Briefly, this protocol involves preparing a 96-well cell culture plate with a 100 μL serially diluted test compound (200 μM top concentration) in HMI-9 + 10% FBS (24 wells per control drug or test compound, with the 24th well serving as drug-free). This is followed by adjusting the cell density of mid-log-phase trypanosome cultures to the required concentration of 2 × 10^5 cells/mL (2 × 10^4 cells/well). Then, 100 μL of the adjusted cell density/culture was added to all 24 wells in the plate, then incubating trypanosomes and test compound for 48 h followed by the addition of 20 μL filter-sterilized resazurin solution prepared by adding 25 mg resazurin sodium salt to 200 mL filter-sterilized PBS. This was followed by a further 24 h of incubation. All incubations were carried out at 37 °C with 5% CO2. […] Fluorescence was measured in the 96-well plates with a FLUOstar Optima (BMG Labtech, Durham, NC, USA) at wavelengths of 544 nm for excitation, 590 for emission, and a gain of 1250. EC50 values were calculated using GraphPad Prism 9.0 software via nonlinear regression with an equation for a sigmoidal dose–response curve with variable slope (GraphPad Software Inc., San Diego, CA, USA).

In data set [2] the target is T1, recombinant TAO (ΔMTS rTAO) (Trypanosoma brucei brucei, UniProt Q26710).
T1 construct: […]; SUMO (Small Ubiquitin-related Modifier) fusion from the expression system; made in house
T1 sequence (Q26710 26-329, stated change not applied): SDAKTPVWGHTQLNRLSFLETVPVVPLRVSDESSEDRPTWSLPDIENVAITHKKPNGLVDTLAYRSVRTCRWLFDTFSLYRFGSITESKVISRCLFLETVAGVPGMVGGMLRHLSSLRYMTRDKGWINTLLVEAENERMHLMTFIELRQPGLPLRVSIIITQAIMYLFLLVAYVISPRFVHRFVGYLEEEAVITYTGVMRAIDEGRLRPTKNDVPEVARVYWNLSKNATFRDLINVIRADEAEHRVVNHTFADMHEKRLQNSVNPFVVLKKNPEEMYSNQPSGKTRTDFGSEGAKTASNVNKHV
Put plainly: TAO inhibitory kinetics (Lineweaver–Burk / Dixon plots). Format: biochemical, T. brucei. Here is the method:
To determine the type of inhibition with purified TAO, the kinetic assay was carried out in the presence of varying concentrations of 1 and substrate concentrations (Ubiquinol; Q1H2) (0–600 μM), with 250 ng TAO in a 1 mL (0.5 M Tris-HCl buffer, pH 7.3) reaction mix. The results were used to construct the Michaelis–Menten plot, which was then transformed to Lineweaver–Burk plots (Figure A).
The slopes of the Lineweaver–Burk primary plot were plotted against the varying concentrations of 1. K i = −(intercept over the X-axis) of the Dixon secondary plot.
(§1) As previously described, the Ubiquinol oxidase activity measurement was carried out using recombinant TAO lacking the mitochondrial targeting signal (ΔMTS). […] The reaction was carried out in a 1 cm cuvette for 2 min using a V-630 Jasco UV–vis spectrophotometer (Jasco Corporation, Tokyo, Japan). Briefly, the procedure involves preincubating 250 ng of the enzyme for 2 min in a 50 mM Tris-HCl (pH 7.3) buffer containing the detergent octaethylene glycol monododecylether (0.05% (w/v)) in a total reaction volume of 1 mL at 25 °C. […] For the inhibition reaction, 250 ng of the enzyme was preincubated with varying inhibitor concentrations for 2 min using the same buffer before the substrate was added. […] This was achieved using the same protocol but without TAO. […] The residual activities were plotted against the corresponding inhibitor concentration in a GraphPad Prism-9 software to obtain the IC50 value.

Data set [3] in a line: Microsomal stability, mouse liver microsomes. The class given is in vitro ADME. The following applies: female, CD1, mouse, pH 7.4, 0.5 mg/mL microsomes, NADPH. Here is the method: Pooled mixed gender human liver microsomes (HLMs) and Pooled CD1 mouse liver microsomes (female) were purchased from Tebubio. The NADPH regenerating system was purchased from Promega. All other reagents and solvents were of special or analytical grade and were commercially available. The assays were performed according to a reported protocol with small changes. […] The reactions were initiated by adding liver microsomes at a final concentration of 0.5 mg/mL in a total volume of 250 μL. […] The supernatants were analyzed with LC/MS for the amount of parent compound remaining, and the CLint and t 1/2 were determined.

Data set [4] has as its system T. b. brucei STIB795/luc. Put plainly: In vivo STIB795 mouse model of T. b. brucei infection. The following applies: 5 mg/kg/day i.p. for 4 days.
Data set [5] concerns T. brucei wild type s427. Put plainly: Growth curve of T. brucei s427, continuous or 24 h limited exposure. Format: cell-based. As to conditions: 2 × and 5 × EC50. As to the method: The results in Figure , which show the growth curve of T. brucei wild type s427 grown in the continuous presence or after a limited exposure (24 h) to 1, indicate that the growth pattern of cells with long-time exposure was similar to that of cells with limited exposure to 1. The compound seemed to rapidly induce an apparent growth inhibition, after approximately 4h, followed by a steep decline in population from 30 h. […] Thus, the effects of 1 on trypanosomes are irreversible before population decline begins.
2 Growth curve of T. brucei wild type s427 grown in either the continuous presence of 1 at indicated concentrations (filled symbols) or with the drug washed out with fresh media after 24 h (open symbols; the arrows indicate the time when compound 1 was withdrawn), or untreated (no drug control). The results presented are those of three biological repeats. Error bars represent SD of the biological replicates.

Data set [6] concerns the target T1, recombinant TAO (ΔMTS rTAO). Nature of the data set: Inhibition of ubiquinol oxidase activity of purified recombinant TAO. Format: biochemical, T. brucei. Here is the method:
This physiologically relevant rTAO enzyme was used throughout this work and in this experiment to study the inhibitory activity of 1.
as §1

Data set [7] has as its system T. b. brucei WT (s427) trypomastigotes. Put plainly: microbe, parasite or virus in culture. The class given is cell-based. The following applies: Trypanosoma brucei. Here is the method:
Other Trypanosoma species used in this study include T. evansi AntTat 3/3 (Wild-type); and T. equiperdum BoTat 1 (Bordeaux trypanozoon antigenic type 1) P (wild-type). All the trypanosomes were used only as bloodstream trypomastigotes and cultured in the standard Hirumi’s Modified Iscove’s medium #9 (HMI-9), supplemented with 10% heat-inactivated Fetal Bovine Serum (FBS), 14 μL/L β-mercaptoethanol, and 3.0 g sodium hydrogen carbonate per liter of medium (pH 7.4). Trypanosomes were cultured in vented flasks at 37 °C in a 5% CO2 atmosphere.
Briefly, this protocol involves preparing a 96-well cell culture plate with a 100 μL serially diluted test compound (200 μM top concentration) in HMI-9 + 10% FBS (24 wells per control drug or test compound, with the 24th well serving as drug-free). This is followed by adjusting the cell density of mid-log-phase trypanosome cultures to the required concentration of 2 × 10^5 cells/mL (2 × 10^4 cells/well). […] All incubations were carried out at 37 °C with 5% CO2. […] EC50 values were calculated using GraphPad Prism 9.0 software via nonlinear regression with an equation for a sigmoidal dose–response curve with variable slope (GraphPad Software Inc., San Diego, CA, USA).

Molecules are shown by their SMILES. Read-outs that look alike come from different tables or passages of the source.

As to `Cc1cc(O)ccc1C(=O)OCCCCCCCCCCCCCC[P+](c1ccccc1)(c1ccccc1)c1ccccn1.[Br-]` [Compound 1, {14-[(4-Hydroxy-2-methylbenzoyl)-oxy]-tetradecyl}-diphenyl(pyridin-2-yl)-Phosphonium Bromide], the EC50 in data set [1] amounted to 41 ± 7 nM; in data set [7] (read-out: T. b. brucei WT (+5 mM glycerol) EC50, incubated in the presence of 5 mM glycerol), 1.4 ± 0.5 nM; in data set [7] (s427, no glycerol, n ≥ 4, read-out: T. b. brucei WT (no glycerol) EC50), 3.1 ± 0.6 nM. For the same molecule, the Ki in data set [2] is 3.46 nM. Besides, the figures for the “Vmax of TAO in the presence of inhibitor” value in data set [2] (5 nM inhibitor), in data set [2] (10 nM inhibitor) and in data set [2] (15 nM inhibitor) were 34.7 µmol/min/mg, 21.4 µmol/min/mg and 13.0 µmol/min/mg, respectively. For the same molecule, the “Type of inhibition of TAO” value in data set [2] (Lineweaver–Burk plot) is “noncompetitive”. Besides, in data set [3] (read-out: CLint,met in mouse microsomes), the microsomal CLint at 1 μM is 293 ± 19 µL/min/mg. Moreover, the half-life at 1 μM in data set [3] (read-out: t1/2 in mouse microsomes) was 4.6 min. Moreover, the “In vivo efficacy (extension of lifespan)” value in data set [4] is “no in vivo efficacy”. The “Time from which population steeply declines” value in data set [5] is not below 30 h. The “Time to apparent growth inhibition” value in data set [5] is recorded as “approximately 4 h”. Further, the half-maximal inhibitory concentration (IC50) in data set [6] was 1.3 ± 0.07 nM.
